Like-named read-outs stand apart in the source and are kept apart here.
Legend:
Type in all cases: cell-based, Escherichia coli
E. coli EKO-35 = experiment: microbe, parasite or virus in culture; settings: for Fold change of MICs: EKO-35 compared to EKO-35 (reference); for Minimum inhibitory concentration (MIC), EKO-35 / Minimum Inhibitory Concentration, EKO-35 / MIC: technical duplicate; for MIC: Escherichia coli, EKO35
Method in brief: (§1)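 Steps: LB overnight culture at 37 °C; resuspension in PBS to OD600 ~1.0; 1/2000 dilution in MHB II; addition to 2-fold serial compound dilutions (duplicate); 18 h shaking incubation at 37 °C; OD600 read, with pre-read subtracted.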

E. coli ΔtolC = experiment: microbe, parasite or virus in culture; settings: for Minimum inhibitory concentration (MIC), ΔtolC: Table 10, without pore; for Minimum inhibitory concentration (MIC), ΔtolC / Minimum Inhibitory Concentration, ΔtolC: technical duplicate; for Minimum Inhibitory Concentration, ΔtolC: Table 13A, non-porinated
Method in brief: as §1

[1] = system: wild-type E. coli K-12 str. BW25113; experiment: microbe, parasite or virus in culture; settings: technical duplicate; for MIC: Escherichia coli, BW25113
Method in brief: as §1

EKO-35 araC::acrBD408A = experiment: MIC susceptibility profiling, efflux platform; settings: for Fold change of MICs: EKO-35 araC::acrBD408A compared to EKO-35
Method in brief: as §1

EKO-35 araC::acrEF = experiment: MIC susceptibility profiling, efflux platform; settings: for Fold change of MICs: EKO-35 araC::acrEF compared to EKO-35
Method in brief: as §1

EKO-35 araC::mdtBC = experiment: MIC susceptibility profiling, efflux platform; settings: for Fold change of MICs: EKO-35 araC::mdtBC compared to EKO-35
Method in brief: as §1

wild-type (WT) K-12-Pore = experiment: microbe, parasite or virus in culture; settings: technical duplicate; for MIC: Escherichia coli
Method in brief: (§2)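 Strains carry the fhuA ΔC/Δ4L pore integrated between glmS and pstS under a constitutive promoter, with pore activity checked by vancomycin susceptibility. Overnight LB cultures were adjusted in PBS pH 7.4 to OD600 ~1.0 and diluted 1/2000 into MHB II. 2-fold compound titrations were read by OD600 after 18 h at 37 °C.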

ΔtolC-Pore = experiment: microbe, parasite or virus in culture; settings: for Minimum inhibitory concentration (MIC), Pore ΔtolC: Table 10, with pore; for Minimum inhibitory concentration (MIC), Pore ΔtolC / Minimum inhibitory concentration, ΔtolC-Pore: technical duplicate; for Minimum inhibitory concentration, ΔtolC-Pore: Table 14A, porinated
Method in brief: as §2

EKO-35-Pore = experiment: MIC susceptibility profiling, porinated strain; settings: for Fold changes of MICs: EKO-35-Pore compared to EKO-35-Pore (reference); for Minimum inhibitory concentration (MIC), Pore EKO-35: Table 10, with pore; for Minimum inhibitory concentration (MIC), Pore EKO-35 / Minimum inhibitory concentration, EKO-35-Pore: technical duplicate; for Minimum inhibitory concentration, EKO-35-Pore: Table 14A, porinated
Method in brief: as §2

EKO-35 araC::acrB Pore = experiment: MIC susceptibility profiling, porinated efflux platform; settings: for Fold changes of MICs: EKO-35 araC::acr-B Pore compared to EKO-35-Pore
Method in brief: as §2

[2] = system: EKO-35 araC::acrBD408A Pore; experiment: as above; settings: for Fold changes of MICs: EKO-35 araC::acrBD408A Pore compared to EKO-35-Pore; for Minimum inhibitory concentration: EKO-35 araC::acrBD408A Pore, technical duplicate
Method in brief: as §2

EKO-35 araC::acrD Pore = experiment: as above; settings: for Fold changes of MICs: EKO-35 araC::acrD Pore compared to EKO-35-Pore
Method in brief: as §2

EKO-35 araC::acrEF Pore = experiment: as above; settings: for Fold changes of MICs: EKO-35 araC::acrEF Pore compared to EKO-35-Pore; for Minimum inhibitory concentration, EKO-35 araC::acrEF Pore: Table 14A, porinated, technical duplicate
Method in brief: as §2

EKO-35 araC::emrAB Pore = experiment: as above; settings: for Fold changes of MICs: EKO-35 araC::emrAB Pore compared to EKO-35-Pore; for Minimum inhibitory concentration: EKO-35 araC::emrAB Pore, technical duplicate
Method in brief: as §2

EKO-35 araC::emrKY Pore = experiment: as above; settings: for Fold changes of MICs: EKO-35 araC::emrKY Pore compared to EKO-35-Pore; for Minimum inhibitory concentration: EKO-35 araC::emrKY Pore, technical duplicate
Method in brief: as §2

EKO-35 araC::macAB Pore = experiment: as above; settings: for Fold changes of MICs: EKO-35 araC::macAB Pore compared to EKO-35-Pore; for Minimum inhibitory concentration: EKO-35 araC::macAB Pore, technical duplicate
Method in brief: as §2

EKO-35 araC::mdtBC Pore = experiment: as above; settings: for Fold changes of MICs: EKO-35 araC::mdtBC Pore compared to EKO-35-Pore; for Minimum inhibitory concentration: EKO-35 araC::mdtBC Pore, technical duplicate
Method in brief: as §2

EKO-35 araC::mdtEF Pore = experiment: as above; settings: for Fold changes of MICs: EKO-35 araC::mdtEF Pore compared to EKO-35-Pore; for Minimum inhibitory concentration, EKO-35 araC::mdtEF Pore: Table 14A, porinated, technical duplicate
Method in brief: as §2

EKO-35 araC::mexCD Pore = experiment: as above; settings: for Fold changes of MICs: EKO-35 araC::mexCD Pore compared to EKO-35-Pore; for Minimum inhibitory concentration: EKO-35 araC::mexCD Pore, technical duplicate
Method in brief: as §2

[3] = Table 13B, non-porinated, technical duplicate
[4] = Table 13A, non-porinated, technical duplicate
[5] = Table 14A, porinated, technical duplicate

Row | SMILES | Fold change of MICs (E. coli EKO-35) | Minimum inhibitory concentration (MIC), EKO-35 (E. coli EKO-35; Table 10, without pore) | Minimum Inhibitory Concentration, EKO-35 (E. coli EKO-35; Table 13A, non-porinated) | Minimum inhibitory concentration (MIC), ΔtolC (E. coli ΔtolC) | Minimum Inhibitory Concentration, ΔtolC (E. coli ΔtolC) | Fold change of MICs (EKO-35 araC::acrBD408A) | Fold change of MICs (EKO-35 araC::acrEF) | Fold change of MICs (EKO-35 araC::mdtBC) | Minimum inhibitory concentration (MIC), Pore ΔtolC (ΔtolC-Pore) | Fold changes of MICs (EKO-35-Pore) | Fold changes of MICs (EKO-35 araC::acrB Pore) | Fold changes of MICs [2] | Fold changes of MICs (EKO-35 araC::acrD Pore) | Fold changes of MICs (EKO-35 araC::acrEF Pore) | Fold changes of MICs (EKO-35 araC::emrAB Pore) | Fold changes of MICs (EKO-35 araC::emrKY Pore) | Fold changes of MICs (EKO-35 araC::macAB Pore) | Fold changes of MICs (EKO-35 araC::mdtBC Pore) | Fold changes of MICs (EKO-35 araC::mdtEF Pore) | Fold changes of MICs (EKO-35 araC::mexCD Pore) | other results
1 | O=C(Nc1ccc(C(F)(F)F)cc1)Nc1ccc(C(F)(F)F)cc1 [compound 7] | 1 fold | 320 µg/mL | 320 µg/mL | 0.313 µg/mL | 0.313 µg/mL | 1 fold | 1 fold | 1 fold | 0.313 µg/mL | 1 fold | 1 fold | 1 fold | 1 fold | 1 fold | 1 fold | 1 fold | 1 fold | 1 fold | 1 fold | 1 fold | Minimum inhibitory concentration (MIC), K-12 ([1]; Table 10, without pore): 320 µg/mL; Minimum Inhibitory Concentration, K-12 ([1]; Table 13A, non-porinated): 320 µg/mL; Minimum Inhibitory Concentration, EKO-35 araC::acrBD408A (EKO-35 araC::acrBD408A; [3]): 320 µg/mL; Minimum Inhibitory Concentration, EKO-35 araC::acrEF (EKO-35 araC::acrEF; [4]): 320 µg/mL; Minimum Inhibitory Concentration, EKO-35 araC::mdtBC (EKO-35 araC::mdtBC; [3]): 320 µg/mL; Minimum inhibitory concentration (MIC), Pore K-12 (wild-type (WT) K-12-Pore; Table 10, with pore): 320 µg/mL; Minimum inhibitory concentration, K-12 (WT)-Pore (wild-type (WT) K-12-Pore; Table 14A, porinated): 320 µg/mL; Minimum inhibitory concentration, ΔtolC-Pore (ΔtolC-Pore): 0.313 µg/mL; Minimum inhibitory concentration (MIC), Pore EKO-35 (EKO-35-Pore): 320 µg/mL; Minimum inhibitory concentration, EKO-35-Pore (EKO-35-Pore): 320 µg/mL; Minimum inhibitory concentration, EKO-35 araC::acrB Pore (EKO-35 araC::acrB Pore; [5]): 320 µg/mL; Minimum inhibitory concentration [2]: 320 µg/mL; Minimum inhibitory concentration, EKO-35 araC::acrD Pore (EKO-35 araC::acrD Pore; [5]): 320 µg/mL; Minimum inhibitory concentration, EKO-35 araC::acrEF Pore (EKO-35 araC::acrEF Pore): 320 µg/mL; Minimum inhibitory concentration (EKO-35 araC::emrAB Pore): 320 µg/mL; Minimum inhibitory concentration (EKO-35 araC::emrKY Pore): 320 µg/mL; Minimum inhibitory concentration (EKO-35 araC::macAB Pore): 320 µg/mL; Minimum inhibitory concentration (EKO-35 araC::mdtBC Pore): 320 µg/mL; Minimum inhibitory concentration, EKO-35 araC::mdtEF Pore (EKO-35 araC::mdtEF Pore): 320 µg/mL; Minimum inhibitory concentration (EKO-35 araC::mexCD Pore): 320 µg/mL
2 | C=C1CCO[C@]2([C@@H](O)[C@@](C)(O)CO)NC(=O)[C@@]1(O)NC2=O [Bicyclomycin] | 1 fold | 200 µg/mL | 200 µg/mL | 200 µg/mL | 200 µg/mL | 1 fold | 1 fold | 1 fold | 200 µg/mL | 1 fold | 1 fold | 1 fold | 1 fold | 1 fold | 1 fold | 1 fold | 1 fold | 1 fold | 1 fold | 1 fold | Minimum inhibitory concentration (MIC), K-12 ([1]; Table 10, without pore): 200 µg/mL; Minimum Inhibitory Concentration, K-12 ([1]; Table 13A, non-porinated): 200 µg/mL; Minimum Inhibitory Concentration, EKO-35 araC::acrBD408A (EKO-35 araC::acrBD408A; [3]): 200 µg/mL; Minimum Inhibitory Concentration, EKO-35 araC::acrEF (EKO-35 araC::acrEF; [4]): 200 µg/mL; Minimum Inhibitory Concentration, EKO-35 araC::mdtBC (EKO-35 araC::mdtBC; [3]): 200 µg/mL; Minimum inhibitory concentration (MIC), Pore K-12 (wild-type (WT) K-12-Pore; Table 10, with pore): 200 µg/mL; Minimum inhibitory concentration, K-12 (WT)-Pore (wild-type (WT) K-12-Pore; Table 14A, porinated): 200 µg/mL; Minimum inhibitory concentration, ΔtolC-Pore (ΔtolC-Pore): 200 µg/mL; Minimum inhibitory concentration (MIC), Pore EKO-35 (EKO-35-Pore): 200 µg/mL; Minimum inhibitory concentration, EKO-35-Pore (EKO-35-Pore): 200 µg/mL; Minimum inhibitory concentration, EKO-35 araC::acrB Pore (EKO-35 araC::acrB Pore; [5]): 200 µg/mL; Minimum inhibitory concentration [2]: 200 µg/mL; Minimum inhibitory concentration, EKO-35 araC::acrD Pore (EKO-35 araC::acrD Pore; [5]): 200 µg/mL; Minimum inhibitory concentration, EKO-35 araC::acrEF Pore (EKO-35 araC::acrEF Pore): 200 µg/mL; Minimum inhibitory concentration (EKO-35 araC::emrAB Pore): 200 µg/mL; Minimum inhibitory concentration (EKO-35 araC::emrKY Pore): 200 µg/mL; Minimum inhibitory concentration (EKO-35 araC::macAB Pore): 200 µg/mL; Minimum inhibitory concentration (EKO-35 araC::mdtBC Pore): 200 µg/mL; Minimum inhibitory concentration, EKO-35 araC::mdtEF Pore (EKO-35 araC::mdtEF Pore): 200 µg/mL; Minimum inhibitory concentration (EKO-35 araC::mexCD Pore): 200 µg/mL
3 | CN[C@@H]1[C@H](O)[C@H](NC)[C@H]2O[C@@]3(O)C(=O)C[C@@H](C)O[C@H]3O[C@@H]2[C@H]1O [Spectinomycin] | 1 fold | – | – | 6.25 µg/mL | – | 1 fold | 1 fold | 1 fold | 6.25 µg/mL | 1 fold | 2 fold | 1 fold | 2 fold | 1 fold | 1 fold | 1 fold | 1 fold | 1 fold | 1 fold | 1 fold | MIC (E. coli EKO-35; Table 10, without pore, read-out: Minimum inhibitory concentration (MIC), EKO-35): 25 µg/mL; MIC (E. coli EKO-35; Table 13A, non-porinated, read-out: Minimum Inhibitory Concentration, EKO-35): 25 µg/mL; MIC (E. coli ΔtolC; Escherichia coli, 18 h, read-out: Minimum Inhibitory Concentration, ΔtolC): 6.25 µg/mL; MIC ([1]; Table 10, without pore, read-out: Minimum inhibitory concentration (MIC), K-12): 25 µg/mL; MIC ([1]; Table 13A, non-porinated, read-out: Minimum Inhibitory Concentration, K-12): 25 µg/mL; MIC (EKO-35 araC::acrBD408A; Escherichia coli, Table 13B, non-porinated, technical duplicate, read-out: Minimum Inhibitory Concentration, EKO-35 araC::acrBD408A): 25 µg/mL; MIC (EKO-35 araC::acrEF; Escherichia coli, Table 13A, non-porinated, technical duplicate, read-out: Minimum Inhibitory Concentration, EKO-35 araC::acrEF): 25 µg/mL; MIC (EKO-35 araC::mdtBC; Escherichia coli, Table 13B, non-porinated, technical duplicate, read-out: Minimum Inhibitory Concentration, EKO-35 araC::mdtBC): 25 µg/mL; MIC (wild-type (WT) K-12-Pore; Table 10, with pore, read-out: Minimum inhibitory concentration (MIC), Pore K-12): 12.5 µg/mL; MIC (wild-type (WT) K-12-Pore; Table 14A, porinated, read-out: Minimum inhibitory concentration, K-12 (WT)-Pore): 12.5 µg/mL; MIC (ΔtolC-Pore; Escherichia coli, 18 h, read-out: Minimum inhibitory concentration, ΔtolC-Pore): 6.25 µg/mL; MIC (EKO-35 araC::acrB Pore; Escherichia coli, Table 14A, porinated, technical duplicate, read-out: Minimum inhibitory concentration, EKO-35 araC::acrB Pore): 25 µg/mL; MIC (EKO-35 araC::acrD Pore; Escherichia coli, Table 14A, porinated, technical duplicate, read-out: Minimum inhibitory concentration, EKO-35 araC::acrD Pore): 25 µg/mL

Source: patent publication US20230407243A1, “GENETIC PLATFORM TO INVESTIGATE THE FUNCTIONS OF BACTERIAL DRUG EFFLUX PUMPS” (priority 2022, published 2023)
